One may read the IC50 as the concentration that inhibits the measured activity by half. A low value points to greater potency in that assay.

This assay has as its target T1, Gag-Pol polyprotein [588-1027]/[588-1147] (Human immunodeficiency virus 1, UniProt P04585).
T1 construct: 588-1027; 588-1147
In words: HIV-1 RT Assay.

SMILES strings stand for the structures. Bounds are passed on as bounds.

Turning to `S=C(NCCc1ccccc1)Nc1cc[nH]n1` [N-(2-Phenethyl)-N -(3-pyrazolyl)thiourea], the IC50 (pH 7.8, 37 °C) is more than 10 µM.
On the same count and under the same terms, in the case of `Cc1csc(NC(=S)NCCc2ccccc2)n1` [3-(4-methyl-1,3-thiazol-2-yl)-1-(2-phenylethyl)thiourea] it was 0.1 µM; in that of `O=C(O)c1csc(/N=C(\S)NCCc2ccccc2)n1` [2-{[(2-phenylethyl)carbamothioyl]amino}-1,3-thiazole-4-carboxylic acid], more than 10 µM; in that of `CCc1csc(NC(=S)NCCc2c(F)cccc2F)n1` [N-(2-(2,6-Difluorophenyl)ethyl)-N -(2-(4-ethylthiazolyl))thiourea], 0.0055 µM.
Still for that read-out and setting: in the case of `S=C(NCCc1ccccc1)Nc1ncccc1Br` [N-(2-Phenethyl)-N -(2-(3-bromopyridyl))thiourea] it was more than 10 µM.
In the case of `S=C(NCCc1cccnc1)Nc1nccs1` [1-[2-(pyridin-3-yl)ethyl]-3-1,3-thiazol-2-ylthiourea], the IC50 is more than 10 µM.
Consider `CCCCCCOc1cccc(CC/N=C(\S)Nc2nccs2)c1` [N-(2-(3-(Hexyloxy)phenethyl))-N -(2-thiazolyl)thiourea], for which the 50% inhibitory concentration (IC50) was more than 10 µM.
Still for that read-out and setting: in the case of `S=C(NCCc1ccncc1)Nc1nccs1` [1-[2-(pyridin-4-yl)ethyl]-3-1,3-thiazol-2-ylthiourea] it was more than 10 µM.

(Values after BindingDB's records for doi:10.1021/jm00025a010 (Eli Lilly, 1995).)
